From PMC9322761, “Design, Synthesis and Biological Characterization of Histone Deacetylase 8 (HDAC8) Proteolysis Targeting Chimeras (PROTACs) with Anti-Neuroblastoma Activity” (International Journal of Molecular Sciences, 2022) come the findings set out here.

Usually IC50 stands for the concentration needed to halve the response being measured.

One experiment concerns IMR-32 cells. Nature of the experiment: Cell viability / proliferation (trypan blue, viable cell count) in neuroblastoma cells. The class given is cell-based, human. The note with it: 5 and 10 µM. On the procedure: Moreover, we treated neuroblastoma IMR-32 cells with the remaining PROTACs and counted the resulting viable cells. We quantified the percentage of dead cells as shown in (Figure 5B,C). In addition, cell proliferation was assessed via counting of viable cells (Figure 5D,E). […] As reference, the HDAC8 inhibitor PCI-34501 was used.
Adherent cells were detached using trypsin–EDTA (ThermoFisher Scientific, Bremen, Germany) and pooled with corresponding supernatant, centrifuged, and resuspended in 1 mL of cell culture medium. Cell viability (viable cell number, % viability, % dead cells) was measured by automated trypan blue staining using the Vi-Cell XR Cell Viability Analyzer (Beckman Coulter, Krefeld, Germany).
Figure 5 (A) Neuroblastoma SK-N-BE(2)-C cells; Colony Assay, 10 days (compound treatment within first 96 h). Stained with crystal violet and quantified with ImageJ. (B,C) Trypan Blue assay for detection of dead cells. Neuroblastoma IMR-32 cells were either treated with 5 µM (B) or 10 µM (C). (D,E) Cell proliferation assessed via counting of viable cells. IMR-32 cells were either treated with 5 µM (D) or 10 µM (E) PROTACs. HDAC8i PCI-34501 served as a positive control, untreated (MEM) and solvent (DMSO) treated cells served as negative controls.

The next experiment deals with T1, HDAC6 (Homo sapiens, UniProt Q9UBN7).
T1 sequence (Q9UBN7 1-1215): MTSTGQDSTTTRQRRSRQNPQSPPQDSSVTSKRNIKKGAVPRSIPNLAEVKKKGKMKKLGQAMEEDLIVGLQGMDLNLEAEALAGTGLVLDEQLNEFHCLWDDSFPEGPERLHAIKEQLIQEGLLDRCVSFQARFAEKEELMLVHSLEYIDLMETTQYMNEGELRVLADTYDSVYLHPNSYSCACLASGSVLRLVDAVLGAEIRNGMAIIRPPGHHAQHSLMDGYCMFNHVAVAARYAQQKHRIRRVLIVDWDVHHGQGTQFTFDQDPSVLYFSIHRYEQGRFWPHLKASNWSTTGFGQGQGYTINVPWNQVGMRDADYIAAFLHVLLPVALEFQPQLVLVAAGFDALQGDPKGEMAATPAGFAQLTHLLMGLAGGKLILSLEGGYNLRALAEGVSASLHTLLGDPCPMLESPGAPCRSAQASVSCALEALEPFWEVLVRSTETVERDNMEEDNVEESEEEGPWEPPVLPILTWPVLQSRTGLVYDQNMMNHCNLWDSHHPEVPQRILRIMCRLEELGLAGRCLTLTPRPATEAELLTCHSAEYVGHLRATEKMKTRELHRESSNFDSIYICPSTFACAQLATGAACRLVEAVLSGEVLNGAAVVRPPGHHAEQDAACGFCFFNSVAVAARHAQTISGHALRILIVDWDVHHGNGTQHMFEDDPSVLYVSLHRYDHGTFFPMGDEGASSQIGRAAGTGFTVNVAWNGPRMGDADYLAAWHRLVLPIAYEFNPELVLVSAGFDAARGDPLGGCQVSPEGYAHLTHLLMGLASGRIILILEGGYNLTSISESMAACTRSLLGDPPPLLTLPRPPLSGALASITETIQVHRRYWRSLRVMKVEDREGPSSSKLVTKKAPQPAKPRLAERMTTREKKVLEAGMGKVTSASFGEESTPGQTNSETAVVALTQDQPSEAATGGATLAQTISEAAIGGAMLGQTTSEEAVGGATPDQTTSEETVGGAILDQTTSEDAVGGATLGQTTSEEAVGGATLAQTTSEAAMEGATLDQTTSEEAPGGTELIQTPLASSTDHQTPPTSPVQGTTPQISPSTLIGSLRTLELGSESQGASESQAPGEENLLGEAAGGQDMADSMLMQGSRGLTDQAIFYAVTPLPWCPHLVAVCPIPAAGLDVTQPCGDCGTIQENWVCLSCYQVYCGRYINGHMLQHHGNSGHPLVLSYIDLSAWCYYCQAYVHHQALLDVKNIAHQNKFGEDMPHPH
As to the kind of experiment: In vitro HDAC inhibitory activity assay, recombinant HDAC6 (fluorogenic substrate ZMAL). It counts as biochemical. Further details: purchased BPS Biosciences. The method, then: The in vitro testing on recombinant HDACs was performed as previously described. Recombinant human HDAC1 and −6 were purchased from BPS Biosciences. The enzyme inhibition was determined by using a reported homogenous fluorescence assay. […] Fluorescence intensity was measured at an excitation wavelength of 390 nm and an emission wavelength of 460 nm in a microtiter plate reader (BMG Polarstar).
Inhibition was measured at increasing concentration and IC50 was calculated by nonlinear regression with Origin 9.0G software.

A further experiment concerns acetylated SMC3. As to the kind of experiment: Acetylation of HDAC8 substrate SMC3 in SK-N-BE(2)-C cells (Western blot). The class given is cell-based, human. The note with it: 10 µM. The method, then:
To test the degradation of HDAC8 with the developed PROTACs, we selected the most promising compounds obtained from the cellular neuroblastoma testing; namely CRBN_1b, CRBN_1d, CRBN_1e, HyT_1m, and HyT_1p. Whole cell lysates from treated SK-N-BE(2)-C neuroblastoma cells were taken and the protein levels for HDAC8 and the acetylation of its substrate SMC3 were determined (Figure 6). As a control for HDAC6, we also assessed acetylation levels of α-tubulin. […]. A clear dose-dependent degradation of HDAC8 by PROTAC CRBN_1e was observed (Figure 6C). After 48 h, the HDAC8 protein level was back to baseline, presumably due to de novo protein synthesis. […]. Western blot analysis was performed as described previously (Kolbinger et al.). […]
Figure 6 (A) SK-N-BE(2)-C neuroblastoma cells were treated for indicated time points with 10 µM of PROTACs. Degradation of HDAC8 and acetylation of HDAC8 target was analyzed via Western blot. […] Acetylation of HDAC8 target SMC3 and HDAC6 target tubulin, as well as total HDAC8 levels, were assessed by Western blot. Quantified ac-SMC3 or ac-tubulin expression, respectively, was normalized to the respective tubulin loading control and to the solvent control (DMSO). This quantification is reflected by the numbers below each blot. […] Total HDAC6, total HDAC1, total HDAC8, and acetyl-histone H4 expression levels, were assessed by Western blot. […]

Consider `COc1ccc(C(=O)NO)cc1NC(=O)c1ccc(NC(=O)CCCCCCCNc2cccc3c2C(=O)N(C2CCC(=O)NC2=O)C3=O)cc1` (stereo not shown) [CRBN_1b], for which the “Effect in cell proliferation assay (viable cell count)” value with IMR-32 cells was “strongest effect”. For the same molecule, the IC50 on HDAC6 amounted to 560 ± 100 nM.

In the case of `O=C(COc1ccc(CNc2cc(C(=O)NO)ccc2Cl)cc1)NCCCCCNC(=O)CC12CC3CC(CC(C3)C1)C2` [HyT_1p], the “Effect in cell proliferation assay (viable cell count)” value in the experiment with IMR-32 cells was “strongest effect”. The inhibition at 1 µM at HDAC6 (1 µM, read-out: HDAC6 % inhib. at given conc.) came to 12.4%. Besides, the inhibition at 10 µM on HDAC6 (10 µM, read-out: HDAC6 % inhib. at given conc.) stood at 72.8%.

Regarding `COC(=O)c1ccc(C)c(NCc2ccc(OCc3cn(CCCCCC(=O)Nc4cccc5c4C(=O)N(C4CCC(=O)NC4=O)C5=O)nn3)cc2)c1` (stereo not shown) [33a], the “Hyperacetylation of HDAC8 substrate SMC3” value in the experiment with acetylated SMC3 was “did not show hyperacetylation”. Also, the “HDAC6 inhibitory activity” value at HDAC6 (negative control) was “did not demonstrate a strong inhibitory activity”.
